{"source": "patent US5556744A", "about": "“Methods and compositions for diagnosing and treating certain HIV infected patients” (The Trustees of the University of Pennsylvania, priority 1994, dated 1996)", "test_system": "maternal HIV+ sera (antibodies)", "test": "RIA / ELISA binding of maternal HIV+ sera to gp120 and gp41 peptides (Example 3)", "parameters": "species or system human", "summary_of_the_method": "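Maternal sera, diluted 1:50 and 1:500, were bound overnight at 4°C to peptides immobilized at 10 μg/ml (pH 9.6 carbonate) and blocked with 1% BSA. Read-out was ¹²⁵I-labelled anti-human IgG counts or HRP-TMB OD450. Signal with peptide minus without was expressed relative to seronegative serum.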", "data": [{"sequence": "KQFINMWQEVGKAMYAPP [Peptide B138]", "values": [{"measurement": "Number of maternal sera binding to peptide", "setting": "20 maternal sera", "value": "Seven"}, {"measurement": "Binding of maternal HIV+ serum to peptide (sera/NHS ratio)", "setting": "Serum No. 1, Non-Transmission Group", "value": "+ (which value is between 2 to 3)"}, {"measurement": "Binding of maternal HIV+ serum to peptide (sera/NHS ratio)", "setting": "Serum No. 2, Non-Transmission Group", "value": "+ (which value is between 2 to 3)"}, {"measurement": "Binding of maternal HIV+ serum to peptide (sera/NHS ratio)", "setting": "Serum No. 3, Non-Transmission Group", "value": "- (specific OD450 or cpm of sera sample binding to peptide divided by the specific OD450 or cpm of NHS sample binding to peptide, which value is less than 2)"}, {"measurement": "Binding of maternal HIV+ serum to peptide (sera/NHS ratio)", "setting": "Serum No. 4, Transmission Group", "value": "+ (which value is between 2 to 3)"}, {"measurement": "Binding of maternal HIV+ serum to peptide (sera/NHS ratio)", "setting": "Serum No. 5, Transmission Group", "value": "+ (which value is between 2 to 3)"}, {"measurement": "Binding of maternal HIV+ serum to peptide (sera/NHS ratio)", "setting": "Serum No. 6, Non-Transmission Group", "value": "+ (which value is between 2 to 3)"}, {"measurement": "Binding of maternal HIV+ serum to peptide (sera/NHS ratio)", "setting": "Serum No. 7, Non-Transmission Group", "value": "++ (which value is greater than 3)"}, {"measurement": "Binding of maternal HIV+ serum to peptide (sera/NHS ratio)", "setting": "Serum No. 8, Non-Transmission Group", "value": "++ (which value is greater than 3)"}, {"measurement": "Binding of maternal HIV+ serum to peptide (sera/NHS ratio)", "setting": "Serum No. 9, Non-Transmission Group", "value": "- (specific OD450 or cpm of sera sample binding to peptide divided by the specific OD450 or cpm of NHS sample binding to peptide, which value is less than 2)"}, {"measurement": "Binding of maternal HIV+ serum to peptide (sera/NHS ratio)", "setting": "Serum No. 10, Transmission Group", "value": "- (specific OD450 or cpm of sera sample binding to peptide divided by the specific OD450 or cpm of NHS sample binding to peptide, which value is less than 2)"}, {"measurement": "Binding of maternal HIV+ serum to peptide (sera/NHS ratio)", "setting": "Serum No. 11, Non-Transmission Group", "value": "- (specific OD450 or cpm of sera sample binding to peptide divided by the specific OD450 or cpm of NHS sample binding to peptide, which value is less than 2)"}, {"measurement": "Binding of maternal HIV+ serum to peptide (sera/NHS ratio)", "setting": "Serum No. 12, Non-Transmission Group", "value": "- (specific OD450 or cpm of sera sample binding to peptide divided by the specific OD450 or cpm of NHS sample binding to peptide, which value is less than 2)"}, {"measurement": "Binding of maternal HIV+ serum to peptide (sera/NHS ratio)", "setting": "Serum No. 13, Transmission Group", "value": "- (specific OD450 or cpm of sera sample binding to peptide divided by the specific OD450 or cpm of NHS sample binding to peptide, which value is less than 2)"}, {"measurement": "Binding of maternal HIV+ serum to peptide (sera/NHS ratio)", "setting": "Serum No. 14, Transmission Group", "value": "- (specific OD450 or cpm of sera sample binding to peptide divided by the specific OD450 or cpm of NHS sample binding to peptide, which value is less than 2)"}, {"measurement": "Binding of maternal HIV+ serum to peptide (sera/NHS ratio)", "setting": "Serum No. 15, Transmission Group", "value": "- (specific OD450 or cpm of sera sample binding to peptide divided by the specific OD450 or cpm of NHS sample binding to peptide, which value is less than 2)"}, {"measurement": "Binding of maternal HIV+ serum to peptide (sera/NHS ratio)", "setting": "Serum No. 16, Non-Transmission Group", "value": "- (specific OD450 or cpm of sera sample binding to peptide divided by the specific OD450 or cpm of NHS sample binding to peptide, which value is less than 2)"}, {"measurement": "Binding of maternal HIV+ serum to peptide (sera/NHS ratio)", "setting": "Serum No. 17, Non-Transmission Group", "value": "- (specific OD450 or cpm of sera sample binding to peptide divided by the specific OD450 or cpm of NHS sample binding to peptide, which value is less than 2)"}, {"measurement": "Binding of maternal HIV+ serum to peptide (sera/NHS ratio)", "setting": "Serum No. 18, Non-Transmission Group", "value": "- (specific OD450 or cpm of sera sample binding to peptide divided by the specific OD450 or cpm of NHS sample binding to peptide, which value is less than 2)"}, {"measurement": "Binding of maternal HIV+ serum to peptide (sera/NHS ratio)", "setting": "Serum No. 19, Transmission Group", "value": "- (specific OD450 or cpm of sera sample binding to peptide divided by the specific OD450 or cpm of NHS sample binding to peptide, which value is less than 2)"}, {"measurement": "Binding of maternal HIV+ serum to peptide (sera/NHS ratio)", "setting": "Serum No. 20, Non-Transmission Group", "value": "- (specific OD450 or cpm of sera sample binding to peptide divided by the specific OD450 or cpm of NHS sample binding to peptide, which value is less than 2)"}, {"measurement": "Number of binding maternal sera from the transmission group", "setting": "vertical transmission group (7 sera)", "value": "two"}]}]}
